Among the test systems are M14; SR; RXF 393; UO-31; NCI-H226; OVCAR-4; SK-MEL-2; U-251; HL-60; ACHN; SF-295; COLO 205; EKVX; RPMI-8226; OVCAR-5; MOLT-4; HCC 2998; NCI-H522; Malme-3M.
Holding throughout (assay): DTP human tumour cell line panel, 48 h

“And” between values parts separate entries of the source, which are not always exact repeats. Equal values may be shown once.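 Dose response: 5 concentrations. Exposure: 48 h. Format: 96-well plates. Endpoint: linear interpolation; highest concentration if not reached. At the GI50, growth is halved.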 The source made the active and inactive calls. Rule as the data show it: active = GI50 up to about 1.1 µM and inactive = higher.

As usually defined, the GI50 is the concentration giving 50% growth inhibition.

With `Cc1cc2c(c(/C=N/Cc3ccccc3)c1)OC1(C=C2)Oc2ccccc2C(=O)N1C` (stereo not given), the GI50 with M14 is 23.2 µM (inactive); with SR, 3.54 µM (inactive); in the test with RXF 393, 20 µM (inactive); in the test on UO-31, 14 µM (inactive); with NCI-H226 it was 16 µM (inactive); in the test on OVCAR-4, 29.2 µM (inactive). Besides, the GI50 was 24.9 µM (inactive) in the test with SK-MEL-2; 29.4 µM (inactive) in the test with U-251; 21 µM (inactive) in the test with HL-60; 20.7 µM (inactive) in the test with ACHN; 29.6 µM (inactive) in the test on SF-295; 17.9 µM (inactive) in the test on COLO 205. Also, the GI50 is 15.3 µM (inactive) in the test with EKVX; 12.1 µM (inactive) with RPMI-8226; 21.4 µM (inactive) in the test with OVCAR-5; 4.5 µM (inactive) with MOLT-4; 27.1 µM (inactive) in the test on HCC 2998.
`CC1=NN(C(=O)CSc2nnc(SCC(=O)N3N=C(C)CC3(O)c3ccccc3)s2)C(O)(c2ccccc2)C1` (stereo not given): the GI50 in the test on M14 was 16.1 µM (inactive); in the test on SR, 23.3 µM (inactive); in the test with RXF 393 it was 24.9 µM (inactive); in the test on UO-31, 22.3 µM (inactive); in the test with OVCAR-4 it was 32.9 µM (inactive); in the test on SK-MEL-2 it was 29.2 µM (inactive). Besides, the GI50 was > 100 µM (inactive) with U-251; 34.8 µM (inactive) in the test on ACHN; 42 µM (inactive) in the test on SF-295; 32.1 µM (inactive) in the test with COLO 205; 27 µM (inactive) in the test with EKVX; 29.6 µM (inactive) in the test with NCI-H522. The GI50 in the test with RPMI-8226 is 15.5 µM (inactive); in the test with OVCAR-5, 82.4 µM (inactive); in the test on MOLT-4, 32.3 µM (inactive); with HCC 2998, > 100 µM (inactive); in the test with Malme-3M, 99.1 µM (inactive).
On to `CC(=O)C(=[N+]=[N-])C(=O)OC(C)(C)C#N`, for which the GI50 in the test on M14, with SR, in the test on RXF 393, in the test with UO-31, in the test on NCI-H226 and in the test on OVCAR-4 was > 10 µM (inactive) in each case. The GI50 in the test with SK-MEL-2, in the test with U-251, with HL-60, in the test on ACHN, in the test with SF-295 and in the test on COLO 205 was > 10 µM (inactive) each time. Further, the GI50 in the test on EKVX, in the test on RPMI-8226, in the test with OVCAR-5, in the test with MOLT-4, with HCC 2998 and with Malme-3M was > 10 µM (inactive) each time.
Consider `Cc1nc2sc3ccccc3n2c(=O)c1/N=N/c1ccc(Br)cc1`, for which the GI50 with M14 is > 100 µM (inactive); in the test with SR, 82.6 µM (inactive); in the test with RXF 393, > 100 µM (inactive); in the test on NCI-H226, 44.8 µM (inactive); with OVCAR-4, 71.3 µM (inactive); with SK-MEL-2, 81.5 µM (inactive). Moreover, the GI50 in the test on U-251 was > 100 µM (inactive); with HL-60, 81.8 µM (inactive); in the test with ACHN, > 100 µM (inactive); in the test on SF-295, > 100 µM (inactive); in the test with COLO 205, > 100 µM (inactive); with EKVX, 57.1 µM (inactive). For the same compound, the GI50 in the test with NCI-H522 was 38.5 µM (inactive); with RPMI-8226 it was 71.3 µM (inactive); in the test with OVCAR-5 it was > 100 µM (inactive); in the test with MOLT-4, 55.8 µM (inactive); with Malme-3M, > 100 µM (inactive).
Consider `COc1ccc2c3c1OC1c4[nH]c5ccccc5c4CC4(O)C(C2)N(C)CCC314` (stereo not given), for which the GI50 in the test on M14 is 17.1 µM (inactive); in the test on SR it was 15.2 µM (inactive); with RXF 393, 20 µM (inactive); with UO-31, 13.6 µM (inactive); in the test on OVCAR-4, 44.3 µM (inactive); in the test with SK-MEL-2, 18.4 µM (inactive). Also, the GI50 was 21 µM (inactive) with U-251; 20.6 µM (inactive) with ACHN; 82.4 µM (inactive) in the test on SF-295; 18.4 µM (inactive) in the test on COLO 205; 51.9 µM (inactive) in the test on EKVX; 25.1 µM (inactive) in the test on NCI-H522. Also, the GI50 in the test on RPMI-8226 is 19.3 µM (inactive); with OVCAR-5, 71.6 µM (inactive); in the test with MOLT-4, 16.7 µM (inactive); with HCC 2998, 16.4 µM (inactive).
For `C=CCC(SC)C1=C(C)C(=O)c2ccccc21` (stereo not given), the GI50 in the test on M14, in the test with SR, with RXF 393, in the test with UO-31, in the test on NCI-H226 and in the test with SK-MEL-2 was > 10 µM (inactive) in each case. In addition, the GI50 in the test on U-251, in the test with ACHN, with SF-295, in the test with EKVX, in the test with RPMI-8226 and in the test on OVCAR-5 was > 10 µM (inactive) throughout. The GI50 with MOLT-4, in the test on HCC 2998 and in the test on Malme-3M was > 10 µM (inactive) throughout.
Regarding `COc1nc(N)c(NC2OC(CO)C(O)C2O)c(=O)[nH]1` (stereo not given), the GI50 in the test on M14, with SR, in the test with RXF 393, in the test on UO-31, in the test with NCI-H226 and in the test on OVCAR-4 was > 100 µM (inactive) throughout. Moreover, the GI50 in the test with SK-MEL-2, with U-251, in the test with HL-60, in the test with ACHN, in the test with SF-295 and with COLO 205 was > 100 µM (inactive) each time. Besides, the GI50 is > 100 µM (inactive) with EKVX; > 100 µM (inactive) in the test with RPMI-8226; > 100 µM (inactive) with OVCAR-5; > 100 µM (inactive) in the test on MOLT-4; > 100 µM (inactive) with HCC 2998; > 100 µM (inactive) and 75.5 µM (inactive) in the test on Malme-3M.
As for `COC[C@@H](/N=C/c1ccc([N+](=O)[O-])cc1)C(C)C`, the GI50 in the test on M14 is 70.1 µM (inactive); in the test on SR, 92.7 µM (inactive); in the test on RXF 393 it was > 100 µM (inactive); in the test with UO-31, > 100 µM (inactive); in the test on OVCAR-4, > 100 µM (inactive); in the test on SK-MEL-2 it was > 100 µM (inactive). In addition, the GI50 is > 100 µM (inactive) with U-251; > 100 µM (inactive) in the test on ACHN; > 100 µM (inactive) with SF-295; > 100 µM (inactive) in the test on EKVX; > 100 µM (inactive) with NCI-H522; 25.2 µM (inactive) in the test with RPMI-8226. The GI50 with OVCAR-5 was > 100 µM (inactive); in the test on MOLT-4 it was 42.2 µM (inactive); in the test on Malme-3M, > 100 µM (inactive).
With `CCOC(=O)C12C(=O)CCN1CCc1ccccc1C2C` (stereo not given), the GI50 with M14, with SR, in the test on RXF 393, in the test on UO-31, in the test on NCI-H226 and with OVCAR-4 was > 100 µM (inactive) each time. For the same compound, the GI50 in the test on SK-MEL-2, in the test on U-251, in the test on HL-60, with ACHN, with SF-295 and in the test with COLO 205 was > 100 µM (inactive) throughout. For the same compound, the GI50 in the test with EKVX, in the test with NCI-H522, in the test on RPMI-8226, in the test on OVCAR-5, with MOLT-4 and in the test on Malme-3M was > 100 µM (inactive) throughout.
For the compound `CN(Cc1cc(Cl)cc(Cl)c1)CC(C(=O)c1ccccc1)c1ccccc1` (stereo not given), the GI50 was 2.98 µM (inactive) with M14; 0.473 µM (active) in the test on SR; 4 µM (inactive) with RXF 393; 6.46 µM (inactive) with UO-31; 5.5 µM (inactive) with NCI-H226; 2.07 µM (inactive) in the test on OVCAR-4. Further, the GI50 is 10.2 µM (inactive) in the test on SK-MEL-2; 1.38 µM (inactive) with U-251; 1.65 µM (inactive) in the test with HL-60; 0.445 µM (active) in the test on ACHN; 27 µM (inactive) in the test on SF-295; 3.92 µM (inactive) in the test with COLO 205. Besides, the GI50 in the test with EKVX is 16.7 µM (inactive); in the test on NCI-H522, 1.54 µM (inactive); in the test on RPMI-8226 it was 0.1 µM (active); in the test with OVCAR-5, 6.21 µM (inactive); in the test with MOLT-4, 0.684 µM (active); in the test on Malme-3M it was 8 µM (inactive).
For the compound `CCNCCNC(=O)c1ccc(I)cc1`, the GI50 is > 100 µM (inactive) in the test with M14; > 100 µM (inactive) in the test with SR; > 100 µM (inactive) with RXF 393; 58.6 µM (inactive) in the test with UO-31; 6.22 µM (inactive) in the test on NCI-H226; > 100 µM (inactive) in the test with OVCAR-4. The GI50 in the test with U-251, in the test with HL-60, with ACHN, with EKVX, in the test with RPMI-8226 and in the test with OVCAR-5 was > 100 µM (inactive) each time. For the same compound, the GI50 in the test on MOLT-4 and in the test on HCC 2998 was > 100 µM (inactive) in each case.
Turning to `Clc1ccc(CN2CCCN(Cc3ccc(Cl)cc3)C2c2cc3ccccc3c3ccccc23)cc1`, the GI50 in the test on M14 is 18.7 µM (inactive); in the test with SR, 3.21 µM (inactive); with RXF 393, 24.8 µM (inactive); in the test on UO-31, 88.1 µM (inactive); in the test on NCI-H226, > 100 µM (inactive); in the test on OVCAR-4 it was 55.6 µM (inactive). In addition, the GI50 in the test with SK-MEL-2 was 25.5 µM (inactive); in the test with U-251 it was 33.3 µM (inactive); with ACHN it was > 100 µM (inactive); in the test with SF-295 it was 52.2 µM (inactive); in the test with COLO 205, 19.7 µM (inactive); in the test with EKVX, 39.1 µM (inactive). Also, the GI50 was 18.9 µM (inactive) in the test on NCI-H522; 45.1 µM (inactive) in the test with RPMI-8226; 36.9 µM (inactive) with OVCAR-5; 5.85 µM (inactive) in the test on MOLT-4; 18.4 µM (inactive) in the test on Malme-3M.

The record behind these values is ChEMBL document CHEMBL1201862, “PubChem BioAssay data set” (2004).
